Laboratory results taken from patent publication US20190216830A1, “OPHTHALMIC COMPOSITIONS” (Aciont Inc., priority 2017, published 2019).
Several values for one entry are separate records, joined by “and”; a condition that tells them apart may be missing. Identical values can stand only once.

Key:
[1] = Toxicokinetic study: plasma DSP and DEX by LC-MS after single device application; format: in vivo, New Zealand White rabbits; settings: after DSP application via device; all four regimens
[2] = test system: rabbit coronary microvessel endothelium; settings: cited from earlier work
[3] = test system: treated eyes (right eye); settings: rabbit, in vivo

Row | Ocular findings in treated eyes (conjunctival injection, discharge, corneal haze) [3] | Compound | Tmax of DEX in plasma [1] | Concentration that can inhibit prostaglandin release [2]
1 |  | C[C@@H]1C[C@H]2[C@@H]3CCC4=CC(=O)C=C[C@]4(C)[C@@]3(F)[C@@H](O)C[C@]2(C)[C@@]1(O)C(=O)CO [DEX, dexamethasone] | 30 min | 10^−7 M and ~40 ng/mL
2 | transient and mild in nature | C[C@@H]1C[C@H]2[C@@H]3CCC4=CC(=O)C=C[C@]4(C)[C@@]3(F)[C@@H](O)C[C@]2(C)[C@@]1(O)C(=O)COP(=O)(O)O [DSP, Dexamethasone sodium phosphate] |  | 
